Active and inactive are the calls of the source. Where only a bound is given, the exact number is not on record here.

10 compounds from ChEMBL document CHEMBL1201862, “PubChem BioAssay data set” (2004) can be followed below.

One assay concerns the target Tumor necrosis factor (Homo sapiens, UniProt P01375). The assay is described as follows: TNFa-triggered NF-kB activation inhibitors, SAR follow-up, cell-based, revised (AID 2337). The class given is functional.
The target of assay [1] is T1, Nucleotide-binding oligomerization domain-containing protein 1 (Homo sapiens, UniProt Q9Y239).
T1 sequence (Q9Y239 whole entry): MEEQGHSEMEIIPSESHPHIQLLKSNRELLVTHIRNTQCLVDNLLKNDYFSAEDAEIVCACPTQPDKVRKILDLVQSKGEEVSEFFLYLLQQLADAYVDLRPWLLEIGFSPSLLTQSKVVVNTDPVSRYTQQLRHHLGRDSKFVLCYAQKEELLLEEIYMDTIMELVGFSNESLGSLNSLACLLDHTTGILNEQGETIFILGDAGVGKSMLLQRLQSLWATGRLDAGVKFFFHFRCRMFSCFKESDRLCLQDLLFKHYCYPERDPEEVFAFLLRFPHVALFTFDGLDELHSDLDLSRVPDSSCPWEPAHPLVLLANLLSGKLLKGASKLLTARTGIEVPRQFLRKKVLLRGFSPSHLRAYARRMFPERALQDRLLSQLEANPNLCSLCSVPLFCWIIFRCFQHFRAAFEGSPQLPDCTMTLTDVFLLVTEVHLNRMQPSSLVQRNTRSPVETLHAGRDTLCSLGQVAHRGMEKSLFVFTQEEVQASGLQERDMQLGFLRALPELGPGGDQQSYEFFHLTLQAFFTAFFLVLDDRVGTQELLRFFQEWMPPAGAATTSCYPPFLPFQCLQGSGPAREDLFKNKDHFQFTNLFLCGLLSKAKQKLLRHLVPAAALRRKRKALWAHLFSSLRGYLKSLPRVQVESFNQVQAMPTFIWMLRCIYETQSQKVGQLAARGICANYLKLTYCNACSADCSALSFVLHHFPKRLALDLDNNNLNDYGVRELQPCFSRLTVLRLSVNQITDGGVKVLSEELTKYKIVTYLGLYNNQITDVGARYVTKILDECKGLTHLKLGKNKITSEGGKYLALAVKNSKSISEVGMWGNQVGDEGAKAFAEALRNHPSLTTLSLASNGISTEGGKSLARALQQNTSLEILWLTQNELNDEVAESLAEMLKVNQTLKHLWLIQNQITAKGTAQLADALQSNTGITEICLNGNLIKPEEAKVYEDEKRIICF
The assay can be described thus: NOD1 signaling inhibitors, SAR follow-up, revised (AID 2333). The class given is functional.

The test system of assay [2] is HEK293. The assay can be described thus: cells. As to conditions: Homo sapiens.
For assay [3], the target named is Nucleotide-binding oligomerization domain-containing protein 2 (Homo sapiens, UniProt Q9HC29). The assay is described as follows: PubChem AID 2334. It is filed as functional.
A further assay deals with T2, Bcl-2-like protein 10 (Homo sapiens, UniProt Q9HD36).
T2 sequence (Q9HD36 whole entry): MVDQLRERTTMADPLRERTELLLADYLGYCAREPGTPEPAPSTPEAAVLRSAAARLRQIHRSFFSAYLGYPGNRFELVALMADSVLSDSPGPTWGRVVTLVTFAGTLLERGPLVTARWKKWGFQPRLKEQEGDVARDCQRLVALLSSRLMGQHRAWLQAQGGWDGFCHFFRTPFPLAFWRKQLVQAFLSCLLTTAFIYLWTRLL
The assay is described as follows: displacers of TR3 peptide from Bcl-B, primary screen, selectivity assay for Bfl-1 inhibitor project, biochemical, fluorescence polarization, FITC-TR3 peptide (AID 748). (Polarisation of emitted light reports the rotation of a fluorescent probe.)

Assay [4] deals with G-protein coupled receptor 55 (Homo sapiens, UniProt Q9Y2T6). The assay can be described thus: GPR55 agonists via beta-arrestin recruitment, primary screen, imaging, U2OS cells, beta-arrestin-GFP redistribution (AID 1961). It is filed as functional. (In general: Recruitment of arrestin is a read-out of receptor activation apart from second messengers.)
The target of assay [5] is T3, Estrogen receptor beta (Homo sapiens, UniProt Q92731). The assay is described as follows: ERβ–SRC-3 coactivator interaction inhibitors, confirmation, orthogonal assay, biochemical, ELISA, streptavidin-HRP readout (AID 1060). A general note: An ELISA detects its analyte on a solid surface through an enzyme-linked reagent.
In assay [6] the target is T3, Estrogen receptor beta.
Another assay has as its target T4, X-box-binding protein 1 (Homo sapiens, UniProt P17861).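 Further: confirmatory dose-response counter-screen serving a CHOP assay.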
T4 sequence (P17861 whole entry): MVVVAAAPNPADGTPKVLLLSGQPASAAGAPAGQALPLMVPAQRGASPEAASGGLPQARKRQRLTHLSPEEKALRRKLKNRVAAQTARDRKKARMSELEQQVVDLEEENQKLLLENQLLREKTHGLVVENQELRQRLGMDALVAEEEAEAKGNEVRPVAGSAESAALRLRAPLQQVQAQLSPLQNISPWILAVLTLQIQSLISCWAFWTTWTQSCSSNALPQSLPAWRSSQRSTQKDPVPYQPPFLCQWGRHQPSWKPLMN
The class given is functional, Cricetulus griseus.

Assay [7] deals with Protein-tyrosine kinase 2-beta (Homo sapiens, UniProt Q14289).
The nature of assay [8]: Artemis endonuclease inhibitor potency, dose response, biochemical, fluorescence intensity (AID 720701).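 Further: Artemis endonuclease enzyme.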 It is filed as functional.
Another assay concerns the target T5, Estrogen receptor (Homo sapiens, UniProt P03372).
T5 sequence (P03372 whole entry): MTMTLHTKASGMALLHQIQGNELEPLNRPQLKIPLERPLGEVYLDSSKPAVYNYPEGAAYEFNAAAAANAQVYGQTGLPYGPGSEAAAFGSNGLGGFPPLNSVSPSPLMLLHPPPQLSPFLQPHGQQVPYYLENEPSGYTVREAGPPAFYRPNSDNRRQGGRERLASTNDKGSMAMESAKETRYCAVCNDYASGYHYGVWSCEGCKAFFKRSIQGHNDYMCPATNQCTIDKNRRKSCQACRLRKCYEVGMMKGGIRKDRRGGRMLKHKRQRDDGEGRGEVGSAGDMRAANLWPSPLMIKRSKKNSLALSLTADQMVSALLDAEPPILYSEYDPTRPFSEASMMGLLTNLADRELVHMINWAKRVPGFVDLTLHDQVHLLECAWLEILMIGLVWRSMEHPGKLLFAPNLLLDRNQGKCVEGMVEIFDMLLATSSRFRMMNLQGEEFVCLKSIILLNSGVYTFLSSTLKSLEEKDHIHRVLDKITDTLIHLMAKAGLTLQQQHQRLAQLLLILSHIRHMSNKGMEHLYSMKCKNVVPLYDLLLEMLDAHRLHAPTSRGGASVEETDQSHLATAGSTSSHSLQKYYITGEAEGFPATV

For assay [9], the target named is T6, Heat shock factor protein 1 (Mus musculus, UniProt P38532).
T6 sequence (P38532 whole entry): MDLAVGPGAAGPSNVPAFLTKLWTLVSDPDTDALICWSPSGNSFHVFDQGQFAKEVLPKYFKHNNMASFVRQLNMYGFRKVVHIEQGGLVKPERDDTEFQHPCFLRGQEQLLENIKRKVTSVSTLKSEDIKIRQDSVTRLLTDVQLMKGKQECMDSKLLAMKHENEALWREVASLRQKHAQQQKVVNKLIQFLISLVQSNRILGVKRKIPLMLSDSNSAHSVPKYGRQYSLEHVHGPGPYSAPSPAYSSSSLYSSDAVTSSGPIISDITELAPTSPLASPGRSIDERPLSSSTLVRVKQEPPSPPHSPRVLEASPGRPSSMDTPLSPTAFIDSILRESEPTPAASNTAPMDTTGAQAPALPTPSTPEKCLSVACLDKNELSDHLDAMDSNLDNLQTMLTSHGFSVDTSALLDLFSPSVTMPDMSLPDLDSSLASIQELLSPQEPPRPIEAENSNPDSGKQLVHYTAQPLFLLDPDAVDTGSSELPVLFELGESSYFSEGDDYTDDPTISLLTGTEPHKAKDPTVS
The assay is described as follows: inhibition of MG132-induced HSE-luciferase signal, confirmation, cell-based, NIH3T3, luminescence, dose retest (AID 2382).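 Further: NIH3T3 fibroblasts with HSF1-driven luciferase reporter stressed by proteasome inhibitor MG132; luminescence from HSF1-driven luciferase expression after 8 hours of MG132 stress.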 The class given is functional.

Assay [10] concerns HEK293. The assay is described as follows: inhibitors of LMP1-driven NF-kB reporter, dose response, cell-based, HEK293, luciferase, cherry-pick (AID 588343). The class given is functional. As to conditions: Homo sapiens.

Sequence of Nucleotide-binding oligomerization domain-containing protein 2 (Q9HC29 whole entry, the tested form may be a part): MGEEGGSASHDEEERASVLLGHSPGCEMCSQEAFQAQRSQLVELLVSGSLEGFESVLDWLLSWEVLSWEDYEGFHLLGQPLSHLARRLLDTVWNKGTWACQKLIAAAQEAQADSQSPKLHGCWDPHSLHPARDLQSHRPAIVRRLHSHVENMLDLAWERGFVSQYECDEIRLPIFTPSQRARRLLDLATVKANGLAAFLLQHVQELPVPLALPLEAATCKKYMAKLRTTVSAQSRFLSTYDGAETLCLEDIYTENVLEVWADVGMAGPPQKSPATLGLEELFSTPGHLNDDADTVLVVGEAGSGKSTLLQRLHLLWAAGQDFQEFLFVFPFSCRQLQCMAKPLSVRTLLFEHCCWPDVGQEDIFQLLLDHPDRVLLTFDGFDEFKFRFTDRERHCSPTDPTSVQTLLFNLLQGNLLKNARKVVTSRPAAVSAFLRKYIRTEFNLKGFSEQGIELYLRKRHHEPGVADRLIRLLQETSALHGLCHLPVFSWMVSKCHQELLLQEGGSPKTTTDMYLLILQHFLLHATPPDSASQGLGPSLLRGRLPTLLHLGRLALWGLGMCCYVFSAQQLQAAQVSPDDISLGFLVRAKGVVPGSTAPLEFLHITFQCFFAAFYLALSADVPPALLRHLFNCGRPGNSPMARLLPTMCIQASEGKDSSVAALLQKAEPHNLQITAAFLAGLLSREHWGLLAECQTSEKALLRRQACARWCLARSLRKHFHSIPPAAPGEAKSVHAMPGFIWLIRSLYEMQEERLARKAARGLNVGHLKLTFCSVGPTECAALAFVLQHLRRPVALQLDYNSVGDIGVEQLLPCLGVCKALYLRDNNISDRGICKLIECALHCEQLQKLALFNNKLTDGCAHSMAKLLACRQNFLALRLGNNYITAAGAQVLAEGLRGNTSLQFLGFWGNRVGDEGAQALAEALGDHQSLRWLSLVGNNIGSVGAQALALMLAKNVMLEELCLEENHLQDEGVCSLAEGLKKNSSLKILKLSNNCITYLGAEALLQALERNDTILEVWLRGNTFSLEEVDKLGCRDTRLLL
Sequence of Tumor necrosis factor (P01375 whole entry, the tested form may be a part): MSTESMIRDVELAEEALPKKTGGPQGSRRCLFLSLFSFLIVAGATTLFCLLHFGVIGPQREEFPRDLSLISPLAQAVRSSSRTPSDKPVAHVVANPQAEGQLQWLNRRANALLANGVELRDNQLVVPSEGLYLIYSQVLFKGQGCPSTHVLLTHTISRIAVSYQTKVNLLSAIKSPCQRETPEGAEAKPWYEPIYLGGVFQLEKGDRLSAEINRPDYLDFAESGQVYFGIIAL
Sequence of G-protein coupled receptor 55 (Q9Y2T6 whole entry): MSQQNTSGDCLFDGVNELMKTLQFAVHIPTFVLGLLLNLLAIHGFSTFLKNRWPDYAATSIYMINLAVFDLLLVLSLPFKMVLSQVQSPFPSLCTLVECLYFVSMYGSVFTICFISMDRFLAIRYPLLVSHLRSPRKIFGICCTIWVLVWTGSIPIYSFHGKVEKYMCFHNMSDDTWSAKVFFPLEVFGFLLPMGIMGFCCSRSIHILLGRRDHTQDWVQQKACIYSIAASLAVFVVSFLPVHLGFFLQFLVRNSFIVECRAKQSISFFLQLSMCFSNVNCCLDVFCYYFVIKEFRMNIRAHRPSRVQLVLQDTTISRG
T3 sequence (Q92731 whole entry): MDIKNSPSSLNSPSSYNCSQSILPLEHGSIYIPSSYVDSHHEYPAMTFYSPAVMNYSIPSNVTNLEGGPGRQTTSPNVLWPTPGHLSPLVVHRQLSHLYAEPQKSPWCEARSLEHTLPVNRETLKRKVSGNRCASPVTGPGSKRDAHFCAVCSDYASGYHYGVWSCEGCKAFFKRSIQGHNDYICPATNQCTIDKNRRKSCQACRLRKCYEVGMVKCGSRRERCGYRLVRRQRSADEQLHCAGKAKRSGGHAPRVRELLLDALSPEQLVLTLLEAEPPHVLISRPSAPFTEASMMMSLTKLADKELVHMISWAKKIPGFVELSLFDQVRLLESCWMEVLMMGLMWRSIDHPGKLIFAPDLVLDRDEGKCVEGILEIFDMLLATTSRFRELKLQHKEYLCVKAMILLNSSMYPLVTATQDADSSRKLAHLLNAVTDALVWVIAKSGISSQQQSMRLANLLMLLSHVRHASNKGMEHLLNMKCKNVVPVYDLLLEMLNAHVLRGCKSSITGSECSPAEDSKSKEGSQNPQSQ
Sequence of Protein-tyrosine kinase 2-beta (Q14289 whole entry): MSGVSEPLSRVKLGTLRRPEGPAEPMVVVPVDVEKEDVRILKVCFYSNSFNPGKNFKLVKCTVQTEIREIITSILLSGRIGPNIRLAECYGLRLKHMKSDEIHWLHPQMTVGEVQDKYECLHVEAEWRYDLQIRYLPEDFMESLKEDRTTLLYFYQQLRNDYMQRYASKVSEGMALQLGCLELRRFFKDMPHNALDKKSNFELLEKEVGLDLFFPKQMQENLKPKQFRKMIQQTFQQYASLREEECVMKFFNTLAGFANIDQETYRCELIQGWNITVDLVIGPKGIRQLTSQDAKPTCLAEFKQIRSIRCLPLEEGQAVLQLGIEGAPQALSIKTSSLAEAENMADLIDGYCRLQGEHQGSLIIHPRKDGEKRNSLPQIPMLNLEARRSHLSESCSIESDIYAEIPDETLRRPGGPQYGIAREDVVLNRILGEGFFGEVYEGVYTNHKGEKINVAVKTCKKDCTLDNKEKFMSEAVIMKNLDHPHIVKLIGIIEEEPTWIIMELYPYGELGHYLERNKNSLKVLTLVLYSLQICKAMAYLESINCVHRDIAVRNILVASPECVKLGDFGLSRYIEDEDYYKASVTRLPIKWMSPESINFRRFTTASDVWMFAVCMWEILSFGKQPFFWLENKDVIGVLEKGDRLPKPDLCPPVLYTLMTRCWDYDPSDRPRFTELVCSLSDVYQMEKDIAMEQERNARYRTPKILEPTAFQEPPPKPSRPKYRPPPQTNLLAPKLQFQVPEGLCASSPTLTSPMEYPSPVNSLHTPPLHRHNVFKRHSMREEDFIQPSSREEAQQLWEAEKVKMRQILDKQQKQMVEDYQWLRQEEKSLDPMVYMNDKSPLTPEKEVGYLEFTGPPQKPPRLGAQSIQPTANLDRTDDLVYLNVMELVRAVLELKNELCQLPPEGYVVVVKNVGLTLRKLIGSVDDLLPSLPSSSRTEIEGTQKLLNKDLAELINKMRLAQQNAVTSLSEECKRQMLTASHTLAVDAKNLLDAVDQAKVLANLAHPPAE

In the case of `O=C(C1CC1)N1CCc2cc(S(=O)(=O)N3CCN(c4ccc([N+](=O)[O-])cc4)CC3)ccc21`, the IC50 at Tumor necrosis factor is 12.4 µM (active); in assay [1] it was 6.5 µM (active); in the assay on HEK293 [2], > 20 µM (inactive); in assay [3] it was 8.44 µM (active).

`Cc1cccn2c(=O)c3cc(C(=O)NCC4CCCO4)c(=N)n(Cc4cccnc4)c3nc12` (stereo unspecified): at Bcl-2-like protein 10, the IC50 is > 25 µM (inactive).

Take `CN1/C(=C\C(=O)COC(=O)c2ccco2)C(C)(C)c2ccccc21`: the EC50 in assay [4] was 5.59 µM (active).

For `CC(=O)OC(c1nc2ccccc2c(=O)n1C1CC2(OC1=O)c1ccccc1N1C(=O)C(C)(C)N(O)C12)C(C)C` (stereo unspecified), the concentration for a half-maximal effect (EC50) in assay [4] was 7.35 µM (active).

Turning to `O=C(COC(=O)CN1C(=O)c2ccccc2C1=O)Nc1ncc(Cl)cc1Cl`, the values for the IC50 against Estrogen receptor beta [5], at Bcl-2-like protein 10 and at Estrogen receptor beta [6] were < 77 µM (not active), 41.5 µM (active) and 11.1 µM (active), respectively.

In the case of `Cc1ccc(/C=N/NC(=O)CSCc2ccc(Cl)cc2)cc1`, the “Absolute IC50 (XBP1)” value on X-box-binding protein 1 was 10 µM.

`Cc1ccccc1C(=O)Nc1nc2ccccc2n1Cc1ccc(Cl)cc1`: the IC50 (on Tumor necrosis factor; in [1]; in the assay on HEK293 [2]; in [3]) was > 20 µM (inactive) throughout.

As for `O=C(Nc1ccc(N2CCCC2)cc1)C(c1ccccc1)c1ccccc1`, the IC50 in assay [7] is 11.6 µM (not active); at Bcl-2-like protein 10 it was 18.9 µM (active); in [8], > 20 µM (inactive); on Estrogen receptor, 7.09 µM (active).

As to `COc1ccc(CCNC(=O)c2nnn(-c3ccc4c(c3)OCCO4)c2N)cc1OC`, in [9], the EC50 was 0.44 µM (active). Besides, the AC50 in the assay on HEK293 [10] was 0.786 µM (active). For the same compound, the “Absolute IC50 (XBP1)” value at X-box-binding protein 1 amounted to 10 µM.

In the case of `O=C(Nc1ccc(Cl)c(Cl)c1)c1ccc(CN2CCc3ccccc3C2)cc1`, the IC50 was > 20 µM (inactive) at Tumor necrosis factor, 0.891 µM (active) in [1], 8.89 µM (active) in the assay with HEK293 [2] and > 20 µM (inactive) in assay [3].

Usually IC50 stands for the concentration needed to halve the response being measured. For orientation: EC50 means the concentration giving half of the maximal effect. As usually defined, the AC50 is the concentration at which the activity in the assay is half-maximal.
